By IC50 is commonly meant the concentration at which inhibition is half-maximal. As a reminder, the chromatographic logD is lipophilicity estimated from chromatographic retention. Low readings indicate lower lipophilicity, high ones higher lipophilicity.

Like-named read-outs stand apart in the source and are kept apart here.

We go through 4 molecules from publication PMC12067128, “Macrocyclization: Enhancing Drug-like Properties of Discoidin Domain Receptor Kinase Inhibitors” (ACS Medicinal Chemistry Letters, 2025).

The nature of data set [1]: Caco-2 membrane permeability assay. Format: in vitro ADME. The settings on record: human. How it is done: Lucifer Yellow (LY) was added to the apical buffer in all wells to assess viability of the cell layer. As LY cannot freely permeate lipophilic barriers, a high degree of LY transport indicates poor integrity of the cell layer and wells with a LY Papp > 10 x 10-6 cm/s were rejected. Compound recovery from the wells was determined from MS responses (normalised to internal standard) in donor and acceptor chambers at the end of incubation compared to response in the donor chamber pre- […]
which may reduce the reliability of a result.
Caco-2 membrane permeability assay
Caco-2 cells (ECACC) were cultured in DMEM, 10% FBS, 1% NEAA, Hepes buffer 10 mM and in 50 U/mL penicillin and […] streptomycin. For transport studies, 200,000 cells/well were seeded on Millicell 24-well cell culture plates. After 24 hours of incubation at 37 °C and 5% CO2, the medium was changed with Enterocyte Differentiation Medium (Becton Dickinson), which allows Caco-2 cells to establish within three days a differentiated enterocyte monolayer. The permeability of the compounds across the cells’ monolayer was determined by measuring their transport in both directions: apical to basolateral (A → B) and basolateral to apical (B → A). For A → B directional transport, the donor working solution with test article 10 m M) was added to the apical (A) compartment and HBSS (pH 7.4) was added to the basolateral (B). For B → A directional transport, the donor working solution (with test article 10 m M) was added to the basolateral (B) compartment and HBSS (pH 7.4) was added to the apical (A). Samples were collected at T0 and after 2h incubation (5% CO2, 95% relative humidity, 37 °C) for LC-MS/MS analyses. The Papp expressed as nm/sec was calculated as follows: Papp (nm/sec) = (Vr/C0) x (1/A) x (Cr(t)/T) x 1000 000. Where
Vr is the volume of the solution in the receiving compartment (mL); C0 is initial test compound concentration in the donor compartment (expressed as area ratio); A is the membrane surface area (cm2); Cr (t) = measured concentration of the receiver well at time T120 (expressed as area ratio) and T is time of incubation (sec). Efflux ratio was also measured to understand if the compounds undergo active efflux: Efflux ratio = Papp [B > A] / Papp [A > B]. The rank order of apparent permeability of the test compound was compared with that of known reference compounds tested in the same experiment, including Sulpiride and Metoprolol (as marker for low and high permeability, respectively and Talinolol (as known P-gp substrate). […]

The target in data set [2] is T1, DDR1 (Homo sapiens, UniProt Q08345).
T1 construct: ProLink™ (PK) tagged full-length DDR1b; host or cells: U2OS human osteosarcoma cells (PathHunter U2OS DDR1)
As to the kind of experiment: PathHunter U2OS DDR1 Functional Assay (DDR1 cellular assay). Format: cell-based. The settings on record: U2OS PathHunter cells, collagen II stimulation; read-out: Cell DDR1 IC50. How it is done: page 17: In vitro Biology DDR1 cellular assay The activity of Discoidin Domain-containing Receptor protein kinase (DDR) inhibitors was determined using the PathHunter® U2OS DDR1 Functional Assay which employs Enzyme Fragment Complementation (EFC) technology, where the β-galactosidase (β-gal) enzyme is split into two fragments, ProLink (PK) and Enzyme Acceptor (EA). Independently these fragments […] β-gal enzyme. In the PathHunter® U2OS DDR1 Functional Assay, the U2OS human osteosarcoma cell line is modified to co-express a ProLinkTM (PK) tagged full-length DDR1b and an Enzyme Acceptor (EA) tagged SH2 domain. Collagen II, as a ligand, induces activation of DDR1b which results in cross-phosphorylation. The SH2-EA fusion protein then specifically binds the phosphorylated receptor resulting in complementation of the two fragments of β-gal and formation of a functional enzyme. β-gal activity is then quantitatively detected using a chemiluminescent substrate. PathHunter® Human U2OS DDR1 cells were prepared in AssayCompleteTM Cell Plating 16 Reagent (DiscoverX 93-0563R16A) and plated at 5000 cells/well in a 384-well white, clear-bottom, sterile plate (ThermoFisher 142762) and incubated for 90 minutes at 37 °C, 5% CO2. Test compounds were serially diluted from a top concentration of 10 mM (1000x final assay concentration) directly in a 384-well low-volume polypropylene plate (Greiner bio-one 784201) using an Echo 555 acoustic liquid handler (Labcyte). Test compounds were diluted in AssayCompleteTM Cell Plating 16 Reagent then added to cells using an Integra ViaFlow384 electronic reagent dispenser and pre-incubated at 37 °C, 5% CO2 for 30 minutes. Following compound pre-incubation, the cells were stimulated with 20 μg/ml Bovine Type II Collagen (DiscoverX 92-1090) with incubation for 20 hours at 37 °C, 5% CO2. Next, PathHunter Detection Reagent (DiscoverX 93-[…]) was added to the cells, incubated for 60 minutes at 25 °C in the dark, prior to capturing the chemiluminescent signal on a PHERAstar (BMG LABTECH). The percentage of inhibition was calculated for each concentration of compound using a 0.1% DMSO vehicle/Collagen II control response as a 0% inhibition and a 10 nM Dasatinib/Collagen II positive 17 page 18: control response as a 100% inhibition. The final assay concentration of the top of the test compound CRC was 10 μM. 18

The nature of data set [3]: ChromLogD chromatographic lipophilicity. Type of data set: physicochemical. The conditions noted are these: C18 column, pH 7.4. The protocol: The chromatographic method was based on the differential retention times of test compounds on a C18 column (Luna C18(2), 30 x 2mm, […], 100 Å) under controlled liquid chromatography conditions, comparing retention times with those of standards (Benzyl Alcohol, p-Nitrophenol, Bromobenzene, Anthracene) with known log D values. Stock solutions (10 mM in DMSO) of test compounds were diluted to a final concentration of 1 mM. The mobile phases consisted of A (20mM Ammonium Acetate buffered to pH 7.4 with ammonia hydroxide) and B (ACN). The LC gradient profile was the following: a linear increase to 90% B during 0.0 to 1.3 min, hold at 90 % B during 1.3 to 1.53 min then back to 0.0% B from 1.53 to 1.60 min, hold at 0% B until the end of the run (2.00 min). 1 μL of the sample volume was injected, using a flow rate of 0.5 mL/min and a column temperature of 40°C. All compounds were detected by UPLC/MS analysis using a a Waters ACQUITY UPLC equipped with a Photo Diode Array (PDA) detector coupled with a Waters ACQUITY QDa single quadrupole mass spectrometer with an Electrospray ionization (ESI) source.
The retention times were obtained by processing data in Waters Openlynx. The standards are then plotted in excel and the best fit line was used as the basis for calculating the unknown LogD values from the retention times of the peaks obtained.

Data set [4] in a line: Chamelogk chameleonicity descriptor. Format: physicochemical. The settings on record: >0.6 = chameleons, <0.6 = non-chameleons. How it is done: Finally, chameleonicity was measured with the recently described Chamelogk method (Table ), where 0.6 is the threshold value to distinguish chameleons from non-chameleons.
The mark [5] stands for this setting: Caco-2, pH 7.4, A to B, without Pgp inhibitor, pH 7.4, 2 h, read-out: Caco-2 Papp AB without Pgp inhibitor.
Where [6] appears, read: Caco-2, pH 7.4, B to A, without Pgp inhibitor, pH 7.4, 2 h, read-out: Caco-2 Papp BA without Pgp inhibitor (converted).
Where [7] appears, read: Caco-2, pH 7.4, with Pgp inhibitor (name and concentration not stated), A to B, with Pgp inhibitor, pH 7.4, 2 h, read-out: Caco-2 Papp AB with Pgp inhibitor.
The mark [8] stands for this setting: Caco-2, pH 7.4, with Pgp inhibitor (name and concentration not stated), B to A, with Pgp inhibitor, pH 7.4, 2 h, read-out: Caco-2 Papp BA with Pgp inhibitor (converted).
The mark [9] stands for this setting: Caco-2, pH 7.4, Caco-2 Papp AB with Pgp inhibitor.
Setting [10] is: Caco-2, pH 7.4, Caco-2 Papp AB without Pgp inhibitor.
[11] abbreviates: Caco-2, pH 7.4, Caco-2 Papp BA with Pgp inhibitor.
The mark [12] stands for this setting: Caco-2, pH 7.4, Caco-2 Papp BA without Pgp inhibitor.

T1 sequence (Q08345 19-913): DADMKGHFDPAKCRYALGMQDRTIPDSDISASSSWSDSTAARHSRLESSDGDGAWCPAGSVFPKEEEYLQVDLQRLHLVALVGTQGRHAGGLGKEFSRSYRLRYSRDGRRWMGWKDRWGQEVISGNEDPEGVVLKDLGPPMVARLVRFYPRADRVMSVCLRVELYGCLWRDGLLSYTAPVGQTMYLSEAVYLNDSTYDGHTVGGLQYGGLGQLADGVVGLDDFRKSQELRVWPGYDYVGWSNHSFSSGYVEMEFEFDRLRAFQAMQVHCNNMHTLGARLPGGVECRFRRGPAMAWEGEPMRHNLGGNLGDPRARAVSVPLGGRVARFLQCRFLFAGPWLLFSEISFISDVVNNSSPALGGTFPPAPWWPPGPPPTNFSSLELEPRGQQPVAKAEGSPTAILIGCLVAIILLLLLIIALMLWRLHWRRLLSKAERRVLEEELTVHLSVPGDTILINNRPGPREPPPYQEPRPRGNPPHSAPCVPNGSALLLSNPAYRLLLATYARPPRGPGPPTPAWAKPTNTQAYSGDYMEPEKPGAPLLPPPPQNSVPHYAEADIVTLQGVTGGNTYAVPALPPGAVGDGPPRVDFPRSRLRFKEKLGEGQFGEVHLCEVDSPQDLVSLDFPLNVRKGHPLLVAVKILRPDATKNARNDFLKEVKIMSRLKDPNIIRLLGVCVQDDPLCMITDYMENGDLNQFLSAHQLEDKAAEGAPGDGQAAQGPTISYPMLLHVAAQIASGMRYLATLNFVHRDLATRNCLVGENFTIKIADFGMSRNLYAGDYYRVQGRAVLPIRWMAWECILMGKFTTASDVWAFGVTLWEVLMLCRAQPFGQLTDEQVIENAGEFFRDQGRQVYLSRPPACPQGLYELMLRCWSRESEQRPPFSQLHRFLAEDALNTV

For `O=C1COc2ccc(cc2)Nc2ccnc(n2)Nc2cnn(c2)CCCN1` [Compound 6b], the Papp A→B at 2 h, 10 µM in data set [1] (setting [5]) amounted to 0.6 ± 0.1 ×10⁻⁶ cm/s; in data set [1] (setting [7]), 5.5 ± 0.2 ×10⁻⁶ cm/s. The Papp B→A at 2 h, 10 µM in data set [1] (setting [6]) is 22.3 ×10⁻⁶ cm/s; in data set [1] (setting [8]), 20.3 ×10⁻⁶ cm/s. The IC50 in data set [2] is > 3150 nM. In data set [3], this molecule came in with a chromatographic logD of 1.17. Besides, in data set [4], the Chamelogk is listed as 1.95.
As to `Cn1cc2c3nc(ncc31)Nc1cnn(c1)CCCNC(=O)COc1ccc-2cc1` [Compound 5b], the Papp A→B at 2 h, 10 µM in data set [1] (setting [5]) is 3 ± 0.6 ×10⁻⁶ cm/s; in data set [1] (setting [7]) it was 22.8 ± 2.8 ×10⁻⁶ cm/s. Moreover, the Papp B→A at 2 h, 10 µM in data set [1] (setting [6]) is 21.5 ×10⁻⁶ cm/s; in data set [1] (setting [8]), 15.9 ×10⁻⁶ cm/s. Also, the IC50 in data set [2] was 2000 nM. In addition, the chromatographic logD in data set [3] was determined as 1.52. Further, the Chamelogk in data set [4] was found to be 0.61.
With `Cn1cc2c3nc(ncc31)Nc1cnn(c1)CCCNCCOc1ccc-2cc1` [Compound 5a], the Papp A→B at 2 h, 10 µM stood at 19.9 ± 2.7 ×10⁻⁶ cm/s in data set [1] (setting [9]) and 10.2 ± 1.5 ×10⁻⁶ cm/s in data set [1] (setting [10]). Besides, the Papp B→A at 2 h, 10 µM in data set [1] (setting [11]) was 13.5 ×10⁻⁶ cm/s; in data set [1] (setting [12]) it was 24.2 ×10⁻⁶ cm/s. Further, in data set [2], the IC50 is 125 nM. In data set [3], this molecule displayed a chromatographic logD of 1.75. In data set [4], this molecule gave a Chamelogk of 1.76.
With `c1cc2nc(n1)Nc1cnn(c1)CCCNCCOc1ccc(cc1)N2` [Compound 6a], the Papp A→B at 2 h, 10 µM in data set [1] (setting [9]) is 8.7 ± 1.9 ×10⁻⁶ cm/s; in data set [1] (setting [10]), 1.9 ± 0.5 ×10⁻⁶ cm/s. For the same molecule, the figures for the Papp B→A at 2 h, 10 µM in data set [1] (setting [11]) and in data set [1] (setting [12]) were 7 ×10⁻⁶ cm/s and 22 ×10⁻⁶ cm/s, respectively. In data set [2], the 50% inhibitory concentration (IC50) turned out to be 1250 nM. This molecule also had a chromatographic logD in data set [3] of 1.15. Moreover, the Chamelogk in data set [4] is recorded as 1.63.
